For test [1], the system named is Acinetobacter baumannii (ATCC19606). The test can be described thus: microbe, parasite or virus in culture. The source says:
(§1) Viba 11, originally discovered in Viola baoshanensis[39] and found in other plants such as Viola tricolor[40], Viola betonicifolia, and Viola philippica, lacks biological activity studies. […] All purified cyclotides underwent antibacterial testing against Gram-positive bacterium Staphylococcus aureus (CMCC(B)26003-2-10) and Bacillus subtilis (CMCC(B)63501), Gram-negative bacteria, including Acinetobacter baumannii (ATCC19606), Escherichia coli (CMCC(B)44102-2-6), and Salmonella paratyphi (CMCC(B)50094-2-9).
(§2) Bacterial fluids are cultured overnight at 37 °C. The next day, the bacterial liquids are diluted to a concentration of 10^6 CFU/ml. Prepare different concentrations of cyclotide drugs and kanamycin sulfate in advance, and sequentially add the drugs and bacterial liquid to the 96-well plate. Negative controls consisted of sterile water and bacterial liquid. The plate is cultured overnight at 37 °C and observe whether the solution remains clear to see the growth of the bacterial suspension. Each test was performed three times at least.

Test [2] relates to Bacillus subtilis (CMCC(B)63501). Briefly: microbe, parasite or virus in culture.
From the text: as §1, §2

The subject of test [3] is Escherichia coli (CMCC(B)44102-2-6). Briefly: microbe, parasite or virus in culture.
From the text: as §1, §2

Test [4] relates to Salmonella paratyphi (CMCC(B)50094-2-9). Briefly: MIC, broth dilution in 96-well plate. It is filed as cell-based. The following applies: 10^6 CFU/ml, overnight 37 °C, visual clarity, performed at least three times.
From the text: (§3) Cycloviolacin O2, known for its antimicrobial, hemolytic, and insecticidal activities, has been more extensively investigated[4],[20],[36]–[38]. Viba 11, originally discovered in Viola baoshanensis[39] and found in other plants such as Viola tricolor[40], Viola betonicifolia, and Viola philippica, lacks biological activity studies. These two cyclotides and vija 10 are high in content and easy to purify, and cycloviolacin O2 can also be used as a positive control to conduct activity study. In addition, few vija12 and 31 were extracted for antibacterial experiments. All purified cyclotides underwent antibacterial testing against Gram-positive bacterium Staphylococcus aureus (CMCC(B)26003-2-10) and Bacillus subtilis (CMCC(B)63501), Gram-negative bacteria, including Acinetobacter baumannii (ATCC19606), Escherichia coli (CMCC(B)44102-2-6), and Salmonella paratyphi (CMCC(B)50094-2-9). […] In addition, the MICs of viba 11, cycloviolacin O2 and vija 10 against B. subtilis were respectively 5.4 μM, 2.1 μM and 14.3 μM (Table 1). […] Therefore, it is hypothesized that the lower antimicrobial activity of vija 10 may be attributed to the presence of only one Lys residue in loop 5.
as §2

For test [5], the system named is Staphylococcus aureus (CMCC(B)26003-2-10). The test can be described thus: MIC, broth dilution in 96-well plate. It is filed as cell-based. The settings on record: 10^6 CFU/ml, overnight 37 °C, visual clarity, performed at least three times.
From the text: as §3, §2
A general note: Dilution methods test growth across graded concentrations, often in twofold steps.

The test system of a further test is Acinetobacter baumannii. The test can be described thus: Time killing kinetics. It counts as cell-based. The following applies: about 10^6 CFU/mL, LB, 37 °C, colony count. How it is done: In this study, we investigated the time-kill kinetics characteristics of plant cyclotides against bacteria. […] It is worth noting that due to experimental constraints, there was a slight discrepancy of a few minutes between theoretical 0 h and actual 0 h. […] Furthermore, we also conducted time-kill kinetics studies using vija 10 against B. subtilis.
Figure 4 (A) The Acinetobacter baumannii time killing kinetics of cycloviolacin O2 at concentration of 1 MIC, 2 MIC, 4 MIC and 8 MIC at 37 °C. (B) The Bacillus subtilis time killing kinetics of vija 10 at concentration of 1 MIC, 2 MIC, 4 MIC at 37 °C. Each test was performed three times at least.
Incubate A. baumannii and B. subtilis in fresh nutrient LB broth at 37 °C until logarithmic growth stage, then dilute to approximately 10^6 CFU/mL, and incubate with cycloviolacin O2 at concentrations of 1 MIC, 2 MIC, 4 MIC, 8 MIC with A. baumannii and vija 10 at concentrations of 1 MIC, 2 MIC, 4 MIC with B. subtilis respectively. Taking the mixture at time points of 0 h, 0.5 h, 1 h, 1.5 h and 2 h, dilute and coat it to solid medium for 24 h. Count the number of colonies on solid culture medium. Each test was performed three times at least. Plotting a line graph with time on the x-axis and bacterial survival on the y-axis using GraphPad Prism 8. Statistical analysis of bacterial viability at different time points to determine the bactericidal and bacteriostatic effects of cyclotides.

Test [6] concerns 4T1 (mouse breast cancer cells). Briefly: MTT cytotoxicity assay. The following applies: 4T1 cells, 48 h incubation, mean ± SD of at least three repeats. It is filed as cell-based. How it is done: (§4) Five types of cells, namely A549 (human non-small cell lung cancer cells), T24 (human bladder cancer cells), 4T1 (mouse breast cancer cells), 7402 (human hepatocellular carcinoma cells), and THLE-3 (human hepatocytes cells), are selected for evaluating the cytotoxicity of viba 11, cycloviolacin O2, and vija 10 using the MTT (3-(4,5-dimethylthiazol-2-yl)-2,5-diphenyltetrazolium bromide) reagent.
(§5) To determine cell toxicity using MTT assay, cells are seeded in a 96-well plate and cultured for 24 h. After that, different concentrations of cyclotides are added to the cells and incubated for 48 h. MTT is then added to react with the cells, and after 4 h, the reaction is terminated by discarding the supernatant and adding dimethyl sulfoxide for resuspension. The absorbance at 570 nm is measured after 10 min of shaking at room temperature. Each test was performed three times at least. The data were analyzed using GraphPad Prism 8. During this process, the drug concentrations were transformed into logarithmic form with a base of 10 and plotted on the x-axis. Cell viability (%) = [A (cyclotides) − A (blank)]/[A (control) − A (blank)] × 100, which was represented on the y-axis. Using this method, we determined the IC50 value for each experiment, with each experiment repeated at least three times and the mean value calculated. The error was represented by the standard deviation of the IC50 obtained from three repetitions.
On the technique in general: Formazan colour is commonly taken as a measure of viable cells.

The subject of test [7] is 7402 (human hepatocellular carcinoma cells). Briefly: MTT cytotoxicity assay. The settings on record: 7402 cells, 48 h incubation, mean ± SD of at least three repeats. It counts as cell-based. How it is done: as §4, §5
Test [8] has as its system A549 (human non-small cell lung cancer cells). The test can be described thus: MTT cytotoxicity assay. It counts as cell-based. The settings on record: 48 h incubation, mean ± SD of at least three repeats. The method, then:
as §4, §5

Test [9] deals with T24 (human bladder cancer cells). The test can be described thus: MTT cytotoxicity assay. The following applies: 48 h incubation, mean ± SD of at least three repeats. It is filed as cell-based. How it is done:
as §4, §5

The subject of test [10] is THLE-3 (human hepatocytes cells). The test can be described thus: MTT cytotoxicity assay. The settings on record: THLE-3 cells, 48 h incubation, mean ± SD of at least three repeats. It is filed as cell-based. The method, then: as §4, §5
Setting [11] is: Acinetobacter baumannii ATCC19606, 10^6 CFU/ml, 96-well plate, overnight 37 °C, visual clarity, performed at least three times.
Setting [12] is: 10^6 CFU/ml, 96-well plate, overnight 37 °C, visual clarity, performed at least three times.

≈ marks a conversion by molar mass, not a printed value. Structures can show the parent of a compound that is named as a salt. Where two headings read alike, the source gives them in different places. Residues, ends and D or L forms follow the SMILES beside them.

By IC50 is commonly meant the concentration that gives 50% inhibition. A higher IC50 goes with weaker potency. Consider `CC[C@H](C)[C@@H]1NC(=O)[C@H](C)NC(=O)[C@H](CO)NC(=O)[C@H](CO)NC(=O)[C@H]([C@@H](C)CC)NC(=O)[C@@H]2CSSC[C@@H]3NC(=O)[C@H](C(C)C)NC(=O)[C@H](CCCCN)NC(=O)[C@H](CO)NC(=O)[C@H](CCCCN)NC(=O)[C@@H]4CSSC[C@H](NC(=O)[C@H](CO)NC(=O)[C@H](CCC(=O)O)NC(=O)CNC(=O)[C@H](CSSC[C@H](NC(=O)CNC1=O)C(=O)N[C@@H](CO)C(=O)N4)NC(=O)[C@@H]1CCCN1C(=O)[C@H]([C@@H](C)CC)NC(=O)CNC(=O)[C@H](CC(N)=O)NC(=O)[C@H](CCCNC(=N)N)NC(=O)[C@H](Cc1ccc(O)cc1)NC3=O)C(=O)N[C@@H](C(C)C)C(=O)N[C@@H](Cc1c[nH]c3ccccc13)C(=O)N[C@@H]([C@@H](C)CC)C(=O)N1CCC[C@H]1C(=O)N2` [cycloviolacin O2, reference compound] (HELM PEPTIDE1{A.I.G.C.S.C.K.S.K.V.C.Y.R.N.G.I.P.C.G.E.S.C.V.W.I.P.C.I.S.S}$PEPTIDE1,PEPTIDE1,4:R3-18:R3|PEPTIDE1,PEPTIDE1,6:R3-22:R3|PEPTIDE1,PEPTIDE1,11:R3-27:R3|PEPTIDE1,PEPTIDE1,1:R1-30:R2$$$V2.0), for which the MIC in [1] (setting [11]) was 4.2 µM (≈ 13.2 µg/mL); in [2] (setting [12]) it was 2.1 µM (≈ 6.6 µg/mL); in test [3] (setting [12]), > 16.8 µM; in [4], > 16.8 µM; in test [5], > 16.8 µM. The “time of treatment to complete eradication of A. baumannii” value is 2 h in the test on Acinetobacter baumannii (4 MIC) and 1.5 h in the test on Acinetobacter baumannii (8 MIC). In addition, the IC50 in [6] is 162 ± 10 nM; in [7] it was 1332 ± 10 nM; in test [8], 149 ± 30 nM; in test [9], 1690 ± 160 nM; in [10] it was 1210 ± 50 nM.
In turn, `CC[C@H](C)[C@@H]1NC(=O)[C@H](Cc2ccc(O)cc2)NC(=O)[C@H](CO)NC(=O)CNC(=O)[C@H](CC(N)=O)NC(=O)[C@H](CCCCN)NC(=O)[C@H](CCCCN)NC(=O)[C@@H]2CSSC[C@@H]3NC(=O)[C@H](CCCCN)NC(=O)[C@H](CC(C)C)NC(=O)[C@H](CCCCN)NC(=O)[C@H](C(C)C)NC(=O)[C@@H]4CSSC[C@H](NC(=O)[C@H]([C@@H](C)O)NC(=O)[C@H](CSSC[C@H](NC(=O)[C@H](CO)NC1=O)C(=O)NCC(=O)N[C@@H](CCC(=O)O)C(=O)N[C@@H]([C@@H](C)O)C(=O)N4)NC(=O)CNC(=O)[C@@H]1CCCN1C(=O)[C@H]([C@@H](C)O)NC(=O)[C@H](Cc1ccc(O)cc1)NC3=O)C(=O)N[C@@H]([C@@H](C)O)C(=O)N[C@@H](Cc1c[nH]c3ccccc13)C(=O)N1CCC[C@H]1C(=O)N[C@@H](C)C(=O)N2` [vija 12] (HELM PEPTIDE1{A.C.K.K.N.G.S.Y.I.S.C.G.E.T.C.V.K.L.K.C.Y.T.P.G.C.T.C.T.W.P}$PEPTIDE1,PEPTIDE1,2:R3-20:R3|PEPTIDE1,PEPTIDE1,11:R3-25:R3|PEPTIDE1,PEPTIDE1,15:R3-27:R3|PEPTIDE1,PEPTIDE1,1:R1-30:R2$$$V2.0) returned an MIC in test [1] (setting [11]) of 14.9 µM (≈ 48 µg/mL).
With `NC[C@H]1O[C@H](O[C@H]2[C@H](O)[C@@H](O[C@H]3O[C@H](CO)[C@@H](O)[C@H](N)[C@H]3O)[C@H](N)C[C@@H]2N)[C@H](O)[C@@H](O)[C@@H]1O` [Kanamycin sulfate, reference compound], the MIC amounted to 8 µM in test [1] (Acinetobacter baumannii, ATCC19606); 4 µM in [2]; 8 µM in test [3].
On to `CC(C)C[C@@H]1NC(=O)[C@@H]2CCCN2C(=O)[C@H](Cc2ccc(O)cc2)NC(=O)[C@H](CCCCN)NC(=O)[C@H](C)NC(=O)[C@@H]2CSSC[C@@H]3NC(=O)[C@H]([C@@H](C)O)NC(=O)[C@H](CCC(=O)O)NC(=O)CNC(=O)[C@@H]4CSSC[C@H](NC(=O)CNC(=O)[C@@H]5CCCN5C(=O)[C@H]([C@@H](C)O)NC(=O)[C@H](Cc5ccccc5)NC(=O)[C@H](CSSC[C@H](NC1=O)C(=O)N[C@@H](CO)C(=O)N[C@@H](CCCCN)C(=O)N[C@@H](CC(N)=O)C(=O)NCC(=O)N[C@@H](CO)C(=O)N[C@@H](C(C)C)C(=O)N[C@@H]([C@@H](C)O)C(=O)NCC(=O)N4)NC(=O)[C@H](CCCCN)NC(=O)[C@H](Cc1ccccc1)NC(=O)[C@H](CCCCN)NC(=O)[C@H](Cc1ccccc1)NC3=O)C(=O)N[C@@H](CCCCN)C(=O)N2` [vija 31] (HELM PEPTIDE1{A.K.Y.P.L.C.S.K.N.G.S.V.T.G.C.G.E.T.C.F.K.F.K.C.F.T.P.G.C.K.C}$PEPTIDE1,PEPTIDE1,6:R3-24:R3|PEPTIDE1,PEPTIDE1,15:R3-29:R3|PEPTIDE1,PEPTIDE1,19:R3-31:R3|PEPTIDE1,PEPTIDE1,1:R1-31:R2$$$V2.0), for which the MIC in test [1] (setting [11]) was 14.9 µM (≈ 48.9 µg/mL).

The values above are taken from article PMC11056381, “Characterization and evaluation of cytotoxic and antimicrobial activities of cyclotides from Viola japonica” (Scientific Reports, 2024).
